Patent publication US9216972B2, “Tricyclic heterocyclic compounds” (Bristol-Myers Squibb Company, priority 2009, dated 2015)

How the values were obtained:
[1] = biological target: S1P1 (membranes from S1P1/CHO cells) (Homo sapiens (Human), UniProt P21453); assay: Receptor [35S] GTPγS Binding Assay, S1P1; assay type: biochemical; details: S1P1/CHO cell membranes; rounded to two digits
Description: (§1) Receptor [35S] GTPγS Binding Assays
(§2) Compounds were loaded in a 384 Falcon v-bottom plate (0.5 μl/well in a 11 point, 3-fold dilution). Membranes prepared from S1P1/CHO cells or EDG3-Ga15-bla HEK293T cells were added to the compound plate (40 μl/well, final protein 3 μg/well) with multidrop. [^35S]GTP (1250 Ci/mmol, Perkin Elmer) was diluted in assay buffer: 20 mM HEPES, pH7.5, 10 mM MgCl2, 150 mM NaCl, 1 mM EGTA, 1 mM DTT, 10 μM GDP, 0.1% fatty acid free BSA, and 10 μg/ml Saponin to 0.4 nM. 40 μl of the [^35S] GTP solution was added to the compound plate with a final concentration of 0.2 nM. The reaction was kept at room temperature for 45 min. At the end of incubation, all the mixtures in the compound plate were transferred to Millipore 384-well FB filter plates via the Velocity11 Vprep liquid handler. The filter plate was washed with water 4 times by using the manifold Embla plate washer and dried at 60° C. for 45 min. MicroScint 20 scintillation fluid (30 μl) was added to each well for counting on the Packard TopCount. EC50 is defined as the agonist concentration that corresponds to 50% of the Ymax (maximal response) obtained for each individual compound tested. The results in Table B were rounded to two digits.

human S1P1 = human S1P1 (Homo sapiens (Human), UniProt P21453); assay: S1P1 Binding Assay (33P-S1P radioligand competition); details: membranes from CHO cells expressing human S1P1; 0.03 nM 33P-S1P; rounded to two digits
Description: Membranes were prepared from CHO cells expressing human S1P1. Cells pellets (1×10^8cells/pellet) were suspended in buffer containing 20 mM HEPES, pH 7.5, 50 mM NaCl, 2 mM EDTA and Protease Inhibitor cocktail (Roche), and disrupted on ice using the Polytron homogenizer. The homogenate was centrifuged at 20,000 rpm (48,000 g) and the supernatant was discarded. The membrane pellets were resuspended in buffer containing 50 mM HEPES, pH 7.5, 100 mM NaCl, 1 mM MgCl2, 2 mM EDTA and stored in aliquots at −80° C. after protein concentration determination.
Membranes (2 μg/well) and 0.03 nM final concentration of ^33P-S1P ligand (1 mCi/ml, American Radiolabeled Chemicals) diluted in assay buffer (50 mM HEPES, pH7.4, 5 mM MgCl2, 1 mM CaCl2, 0.5% fatty acid free BSA, 1 mM NaF) were added to the compound plates (384 Falcon v-bottom plate (0.5 μl/well in a 11 point, 3-fold dilution). Binding was performed for 45 minutes at room temperature, terminated by collecting the membranes onto 384-well Millipore FB filter plates, and radioactivity was measured by TopCount. The competition data of the test compounds over a range of concentrations was plotted as percentage inhibition of radioligand specific binding. The IC50 is defined as the concentration of competing ligand needed to reduce specific binding by 50%.

[2] = biological target: S1P3 (membranes from EDG3-Ga15-bla HEK293T cells) (Homo sapiens (Human), UniProt Q99500); assay: Receptor [35S] GTPγS Binding Assay, S1P3; assay type: biochemical; details: EDG3-Ga15-bla HEK293T cell membranes; rounded to two digits
Description: as §1, §2

[3] = test system: circulating blood lymphocytes; assay: Blood Lymphocyte Reduction Assay (BLR) in Rodents; assay type: in vivo; details: Lewis rats, oral, versus vehicle (PEG300) group
Description: Blood Lymphocyte Reduction Assay (BLR) in Rodents
Lewis rats were dosed orally with test article (as a solution or suspension in the vehicle) or vehicle alone (polyethylene glycol 300, “PEG300”). Blood was drawn at 4 hr and 24 h by retro-orbital bleeding. Blood lymphocyte counts were determined on an ADVIA 120 Hematology Analyzer (Siemens Healthcare Diagnostics). The results were measured as a reduction in the percentage of circulating lymphocytes as compared to the vehicle treated group at the 4 hr and 24 hr measurement. The results represent the average results of all animals within each treatment group (n=3-4).

Chain of S1P1 (membranes from S1P1/CHO cells) (P21453 whole entry): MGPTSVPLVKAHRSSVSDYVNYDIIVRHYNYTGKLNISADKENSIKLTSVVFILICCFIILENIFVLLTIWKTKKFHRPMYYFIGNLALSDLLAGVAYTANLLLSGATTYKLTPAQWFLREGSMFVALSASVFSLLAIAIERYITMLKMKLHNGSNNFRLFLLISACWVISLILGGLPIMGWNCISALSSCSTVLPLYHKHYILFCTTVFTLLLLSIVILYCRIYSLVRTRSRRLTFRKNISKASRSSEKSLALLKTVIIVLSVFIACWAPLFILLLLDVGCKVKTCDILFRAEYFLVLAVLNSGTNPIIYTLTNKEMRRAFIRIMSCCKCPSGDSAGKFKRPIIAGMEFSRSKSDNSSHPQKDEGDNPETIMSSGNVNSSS
Chain of human S1P1 (P21453 whole entry): as above
Chain of S1P3 (membranes from EDG3-Ga15-bla HEK293T cells) (Q99500 whole entry): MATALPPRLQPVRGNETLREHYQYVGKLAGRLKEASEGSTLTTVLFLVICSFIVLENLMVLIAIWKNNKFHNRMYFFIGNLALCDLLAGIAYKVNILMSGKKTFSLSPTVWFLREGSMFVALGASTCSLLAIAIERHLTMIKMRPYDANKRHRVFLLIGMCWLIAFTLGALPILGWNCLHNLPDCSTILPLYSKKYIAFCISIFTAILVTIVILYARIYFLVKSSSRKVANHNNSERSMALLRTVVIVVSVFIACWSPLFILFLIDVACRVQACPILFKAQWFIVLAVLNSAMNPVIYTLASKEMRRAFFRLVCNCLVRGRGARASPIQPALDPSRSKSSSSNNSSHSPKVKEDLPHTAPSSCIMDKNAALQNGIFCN

Structure (SMILES)	EC50 [1] [nM]	IC50 (human S1P1) [nM]	EC50 [2] [nM]	% Reduction in Lymphocytes at 4 hr. ([3]; dose 1.0 mg/kg) [%]	% Reduction in Lymphocytes at 4 hr. ([3]; dose 3.0 mg/kg) [%]
OCc1ccc2c(c1)CCc1c-2noc1-c1cccc(C(F)(F)F)c1 [Example 24, (3-(3-(Trifluoromethyl)phenyl)-4,5-dihydronaphtho[1,2-c]isoxazol-7-yl)methanol]	3200	3200	> 31000		
CC(C)Oc1ccc(-c2onc3c2CCc2cc(CN4CC(C(=O)O)C4)ccc2-3)cc1C(F)(F)F [Example 14, 1-((3-(4-Isopropoxy-3-(trifluoromethyl)phenyl)-4,5-dihydronaphtho[1,2-c]isoxazol-7-yl)methyl)azetidine-3-carboxylic acid]	11	6.7	> 31000		
CC(C)Oc1ccc(-c2onc3c2CCc2cc(CNCCC(=O)O)ccc2-3)cc1C#N [Example 16, 3-((3-(3-Cyano-4-isopropoxyphenyl)-4,5-dihydronaphtho[1,2-c]isoxazol-7-yl)methylamine)propanoic acid]	24	24	11000		
O=C(O)C1CN(Cc2cc3c(cc2F)-c2noc(-c4onc(-c5ccccc5)c4C(F)(F)F)c2CC3)C1 [Example 67]	0.76	5.6	14700		
CCCc1ccc(-c2noc3c2CCc2cc(CN4CC(C(=O)O)C4)ccc2-3)cc1 [Example 20, 1-((3-(4-Propylphenyl)-4,5-dihydronaphtho[2,1-d]isoxazol-7-yl)methyl)azetidine-3-carboxylic acid]	220	56	> 31000		
Oc1ccc2c(c1)CCc1c-2noc1-c1cc(-c2ccccc2)on1 [Example 32, 3-(5-Phenylisoxazol-3-yl)-4,5-dihydronaphtho[1,2-c]isoxazol-7-ol]	15000	15000	> 63000		
CC(C)Cc1onc(-c2onc3c2CCc2cc(CN4CC(C(=O)O)C4)ccc2-3)c1C(F)(F)F [Example 5, 1-((3-(5-Isobutyl-4-(trifluoromethyl)isoxazol-3-yl)-4,5-dihydronaphtho[1,2-c]isoxazol-7-yl)methyl)azetidine-3-carboxylic acid]	0.74	0.57	1500	83	
CCCc1ccc(-c2onc3c2CCc2cc(OC[C@H](O)CO)ccc2-3)cc1 [Example 12, (R)-3-(3-(4-Propylphenyl)-4,5-dihydronaphtho[1,2-c]isoxazol-7-yloxy)propane-1,2-diol]	6300	390	> 31000		
O=C(O)C1CN(Cc2ccc3c(c2)CCc2c-3noc2-c2noc(-c3ccccc3)c2C(F)(F)F)C1 [Example 6, 1-((3-(5-Phenyl-4-(trifluoromethyl)isoxazol-3-yl)-4,5-dihydronaphtho[1,2-c]isoxazol-7-yl)methyl)azetidine-3-carboxylic acid]	0.59	0.66	4400	86	
CC(C)Cc1ccc(-c2onc3c2CCc2cc(O)ccc2-3)cc1 [Example 41, 3-(4-Isobutylphenyl)-4,5-dihydronaphtho[1,2-c]isoxazol-7-ol]	1600	1600	> 63000		
CC(N)(CCc1ccc2c(c1)CCc1c-2noc1-c1noc(-c2ccccc2)c1C(F)(F)F)C(=O)O (single isomer, unassigned) [Example 94, 2-amino-2-methyl-4-(3-(5-phenyl-4-(trifluoromethyl)isoxazol-3-yl)-4,5-dihydronaphtho[1,2-c]isoxazol-7-yl)butanoic acid]	12	16	16200		
CC(C)Cc1ccc(-c2onc3c2CCc2cc(CN4CC(C(=O)O)C4)ccc2-3)cc1C(F)(F)F [Example 23, 1-((3-(4-Isobutyl-3-(trifluoromethyl)phenyl)-4,5-dihydronaphtho[1,2-c]isoxazol-7-yl)methyl)azetidine-3-carboxylic acid]	0.73	0.98	3500		76
O=C(O)C1CN(Cc2ccc3c(c2)CCc2c-3n[nH]c2-c2onc(-c3ccccc3)c2C(F)(F)F)C1 [Example 22, 1-((3-(3-Phenyl-4-(trifluoromethyl)isoxazol-5-yl)-4,5-dihydro-2H-benzo[g]indazol-7-yl)methyl)azetidine-3-carboxylic acid]	980	980	> 63000		
OCC1COCCN1Cc1ccc2c(c1)CCc1c-2noc1-c1noc(-c2ccccc2)c1C(F)(F)F (centres unmarked) [Example 74]	410	600	> 63000		
Oc1ccc2c(c1)CCc1c-2noc1-c1cc(-c2ccccc2Cl)n(-c2ccccc2)n1 [Example 33, 3-(5-(2-Chlorophenyl)-1-phenyl-1H-pyrazol-3-yl)-4,5-dihydronaphtho[1,2-c]isoxazol-7-ol]	250	250	> 31000		
CCCc1ccc(-c2noc3c2COc2cc(CN4CC(C(=O)O)C4)ccc2-3)cc1 [Example 3, 1-((3-(4-Propylphenyl)-4H-chromeno[3,4-d]isoxazol-7-yl)methyl)azetidine-3-carboxylic acid]	1.3	1.3	1300	85	
CC(N)(CO)CCc1ccc2c(c1)CCc1c-2noc1-c1noc(-c2ccccc2)c1C(F)(F)F (single isomer, unassigned) [Example 93, 2-amino-2-methyl-4-(3-(5-phenyl-4-(trifluoromethyl)isoxazol-3-yl)-4,5-dihydronaphtho[1,2-c]isoxazol-7-yl)butan-1-ol]	40	22	> 63000		
O=C(O)C1CN(Cc2ccc3c(c2)OCc2c-3noc2-c2onc(-c3ccccc3)c2C(F)(F)F)C1 [Example 61, 1-((3-(3-phenyl-4-(trifluoromethyl)isoxazol-5-yl)-4H-chromeno[4,3-c]isoxazol-7-yl)methyl)-azetidine-3-carboxylic acid]	0.32	1.6	> 31000		
O=C(O)C1CN(Cc2ccc3c(c2)CCc2c-3noc2-c2onc(-c3ccccc3)c2C(F)(F)F)C1 [Example 7, 1-((3-(3-Phenyl-4-(trifluoromethyl)isoxazol-5-yl)-4,5-dihydronaphtho[1,2-c]isoxazol-7-yl)methyl)azetidine-3-carboxylic acid]	57	57	> 31000		
N#CC1(NC(=O)[C@H](O)c2ccc3c(c2)CCc2c-3noc2-c2noc(-c3ccccc3)c2C(F)(F)F)CC1 (stereo in doubt) [Example 132, N-(1-cyanocyclopropyl)-2-hydroxy-2-(3-(5-phenyl-4-(trifluoromethyl)isoxazol-3-yl)-4,5-dihydronaphtho[1,2-c]isoxazol-7-yl)acetamide]	1.7	4.1	8500		
CCCc1ccc(-c2onc3c2COc2cc(CN4CC(C(=O)O)C4)ccc2-3)cc1 [Example 2, 1-((3-(4-Propylphenyl)-4H-chromeno[4,3-c]isoxazol-7-yl)methyl)azetidine-3-carboxylic acid]	1.2	1.2	8200	65	
O=C(O)[C@H]1CCCN(Cc2ccc3c(c2)CCc2c-3noc2-c2noc(-c3ccccc3)c2C(F)(F)F)C1 [Example 70, (3S)-1-((3-(5-Phenyl-4-(trifluoromethyl)isoxazol-3-yl)-4,5-dihydronaphtho[1,2-c]isoxazol-7-yl)methyl)piperidine-3-carboxylic acid]	49	22	4660		
